Laboratory results published in patent US11842798B2, “Natural product and genetic data analysis and discovery system, method and computational platform therefor” (priority 2015, dated 2023).
Entries after “also recorded” stand apart in the source; their conditions may differ. Where two headings read alike, the source gives them in different places. Numbered stars: 1 amine (or outer) side, 2 acyl side, 3 side chain; on linkers, the order of the positions; unused ones are H or OH. Bridge positions count the residues as written; N and C are the ends. Square brackets hold non-standard residues; d marks the D form. Peptide text beside a SMILES is read from it. X1 = O=C(/C(=C\c1c[nH]c2ccccc12)N[*:1])[*:2]; X2 = CC(c1c[nH]c2ccccc12)C(N[*:1])C(=O)[*:2]; βAsp = O=C(O)[CH](CC(=O)[*:2])N[*:1]

Columns and labels:
[1] = test system: Telomycin-resistant bacteria; test: MIC by broth microdilution, telomycin-resistant strains; format: cell-based, S. aureus and B. subtilis; settings: for activity against resistant strains: compared with telomycin A against sensitive strains
Experimental: (§1) FIG. 46 summarizes MICs of telomycin antibiotics (1-10). Sensitive and resistant strains were exposed to telomycins and MICs were measured by microdilution in CAMHB. MICs were determined after 16 h growth, and are shown in μg ml−1.
(§2) Minimum inhibitory concentrations (MICs) for telomycins were determined using broth microdilution in cation-adjusted Mueller Hinton broth (CAMHB). Bacillus subtilis strains were cultured at 28° C., and S. aureus strains were cultured at 37° C. […] For assessing the impact of treating strains with sodium chloride concentrations prior to telomycin, S. aureus was grown overnight in CAMHB containing 0, 0.5, 1, or 1.5 M NaCl and then MICs were recorded as described above.
To identify mutations that conferred resistance to telomycin, we isolated colonies of S. aureus Newman that appeared inside the zone of inhibition observed during telomycin disk diffusion assays. […] Genomic DNA was extracted from highly resistant isolates and their sensitive parental strain, and sequenced with an Illumina MiSeq platform. Sequences were compared using BreSeq, which exclusively identified mutations in the predominant, house-keeping cardiolipin synthase (cls2). Bacillus subtilis telomycin-resistant mutants were identified in a similar manner, and mutations in cardiolipin synthase were confirmed by sequencing PCR products of the two cardiolipin synthase genes: clsA and clsB. […] PCR primers used for the amplification of B. subtilis cardiolipin synthase genes are as follows— • clsAF: 5′-[…]-3′ (SEQ ID NO: 1); • clsAR: 5′-[…]-3′ (SEQ ID NO: 2); • clsBF: 5′-[…]-3′ (SEQ ID NO: 3); • clsBR: 5′-[…]-3′ (SEQ ID NO: 4). Structure Elucidation

Gram positive organisms = settings: cited from earlier work
S. aureus [2] = test: MIC by broth microdilution in CAMHB; format: cell-based
Experimental: as §2
(§3) (a) Structure of telomycin. […] Wild type S. aureus (OD 0.2) was exposed to 8 (1×MIC) or 256 μg ml^−1 (32×MIC) telomycin. Colony-forming units (CFUs) were taken before treatment (black) and after 90 min (white). Results are shown as ±s.d.; n=4; Two-tailed students t-test. P=0.0023. Data are representative of three independent experiments.

S. aureus [3] = test: Colony forming unit (CFU) lysis assay; format: cell-based
Experimental: (§4) Cultures of S. aureus and B. subtilis were grown overnight in CAMHB. Starter cultures were used to inoculate fresh media and were grown to OD=0.2, after which they were transferred to 96-well plates. Cultures were serially diluted and plated on CAMHB agar to determine initial colony-forming units. Telomycin dissolved in DMSO was added to each well (1:100) and incubated for 90 min, followed by serial dilution and plating to determine colony-forming units. Results are shown as ±s.d.; n=4; Two-tailed students t-test.
as §3
(a) Mutating cardiolipin synthase provides spontaneous telomycin resistance. Wild type and spontaneously-resistant S. aureus (left) and B. subtilis (right) were exposed to 32×MIC concentrations of telomycin for 90 min. CFUs were taken before treatment (black) and after 90 min (white). Results are shown as ±s.d.; n=4; Two-tailed students t-test. P=0.0018. Data are representative of three independent experiments. […] Mixtures were incubated for 5 min before turbidity was measured using absorbance at 600 nm. […]

B. subtilis [4] = test: Colony forming unit (CFU) lysis assay; format: cell-based; settings: concentrations above the MIC
Experimental: as §4
(§5) (a) Mutating cardiolipin synthase provides spontaneous telomycin resistance. Wild type and spontaneously-resistant S. aureus (left) and B. subtilis (right) were exposed to 32×MIC concentrations of telomycin for 90 min. CFUs were taken before treatment (black) and after 90 min (white). Results are shown as ±s.d.; n=4; Two-tailed students t-test. P=0.0018. Data are representative of three independent experiments. […] Telomycin (final concentration 5 mM; 6.3 mg ml^−1) was mixed with CL, PG, PE, or PC at concentrations ranging from 0.125 to 5 mg ml^−1. Mixtures were incubated for 5 min before turbidity was measured using absorbance at 600 nm. […] Telomycin (0.1 mM) was exposed to lipids at concentrations ranging from 1 to 0.05 mM, then used to determine MICs against wild type B. subtilis. […] (d) Cardiolipin abolishes telomycin's antibacterial activity. […]

[5] = test system: Telomycin-resistant bacteria; test: CFU lysis assay on spontaneously-resistant strains; format: cell-based, S. aureus and B. subtilis; settings: 32×MIC, 90 min
Experimental: as §4, §5

HEK293 cells = test: Cytotoxicity assay (Alamar Blue); format: cell-based, human; settings: HEK293, 48 h
Experimental: HEK293 cells were obtained from the American Type Culture Collection (ATCC; ATCC CRL-1573) and maintained in Minimal Essential Media (MEM) Alpha modifications supplemented with 10% fetal bovine serum. […] Cells were cultured in 96-well plates containing 200 μL of media and 5000 cells per well. After 3 h of incubation, cells were treated with a serial dilution of telomycin A. Experiments were performed in duplicate with DMSO as a negative control and mitomycin C as a positive control. After 48 h incubation, 10% (22 μL) Alamar Blue (Life Technologies) was added and incubated with cells for 4 h at 37° C. Fluorescence was measured at an excitation wavelength of 530 nm and an emission wavelength of 590 nm and compared to a no-drug control.

sheep red blood cell = test: Red blood cell (RBC) hemolysis assay; format: cell-based; settings: 0.25% sheep RBC, 256 to 2 μg/mL, 1 h, 37° C.
Experimental: Hemolytic activity of telomycin was measured against a 0.25% sheep red blood cell (RBC, Fisher Scientific) suspension in phosphate-buffered saline. Telomycin was serially diluted from 256 to 2 μg/mL and incubated with the RBC suspension for 1 h at 37° C. in a polypropylene 96-well plate with conical wells. After 1 h, RBCs were pelleted (1000×g for 5 min) and the supernatant was transferred to a flat-bottom polystyrene 96-well plate, measuring absorbance at 540 nm. 1% Triton X-100 was used as a positive control, while DMSO alone and RBCs alone were used as negative controls.
A solution of 0.25% sheep red blood cell suspension in phosphate buffered saline was incubated for 1 h at 37° C. with either a serial dilution of telomycin, 1% Triton X100 (positive lysis control), DMSO alone (1%; negative lysis control), or without added content (negative lysis control). After 1 h RBCs were pelleted and lysis was assessed by measuring absorbance of the supernatant at 540 nm.

[6] = Turbidity of telomycin-lipid mixtures; format: binding; settings: telomycin mixed with cardiolipin, absorbance at 600 nm, other lipids as contrast
Experimental: To measure the turbidity of telomycin-lipid mixtures, telomycin was dissolved in methanol at a concentration of 12.8 mg/mL, and cardiolipin (Sigma Aldrich; C0563; 98% pure), phosphatidylglycerol (Sigma Aldrich; 63371; ≥98% pure), phosphatidylcholine (Sigma Aldrich; P3556; ≥99% pure), and phosphatidylethanolamine (Sigma Aldrich; P7943; 97% pure) were dissolved in methanol at a concentration of 10 mg/mL. 20 μL of telomycin was mixed with 20, 10, 5, 1, or 0.5 μL of each lipid (final reaction volume 40 μL) in a flat-bottom polystyrene 96-well plate. Optical density (OD=600 nm) was measured after 10 min.
(§6) (a) Mutating cardiolipin synthase provides spontaneous telomycin resistance. Wild type and spontaneously-resistant S. aureus (left) and B. subtilis (right) were exposed to 32×MIC concentrations of telomycin for 90 min. CFUs were taken before treatment (black) and after 90 min (white). Results are shown as ±s.d.; n=4; Two-tailed students t-test. P=0.0018. Data are representative of three independent experiments. […] Telomycin (final concentration 5 mM; 6.3 mg ml^−1) was mixed with CL, PG, PE, or PC at concentrations ranging from 0.125 to 5 mg ml^−1. Mixtures were incubated for 5 min before turbidity was measured using absorbance at 600 nm. […] Telomycin (0.1 mM) was exposed to lipids at concentrations ranging from 1 to 0.05 mM, then used to determine MICs against wild type B. subtilis. […]

B. subtilis [7] = test: Bioactivity of telomycin-lipid mixtures in liquid media (MIC); format: cell-based
Experimental: To assess the impact of various lipids on telomycin's antibacterial activity in liquid media, telomycin was dissolved in methanol at 12.8 mg/mL (approx. 10 mM) and 1 μL was added to a 96-well plate. Lipids were dissolved in methanol and 10 μL of 10, 5, 2, 1, or 0.5 mM lipid was added to each telomycin-containing well. CAMHB inoculated with B. subtilis was added to each well and serially diluted to determine the minimum inhibitory concentration of each telomycin-lipid mixture. Plates were incubated shaking at 28° C. for 16 h.
as §5

B. subtilis [8] = test: Bioactivity of telomycin-lipid mixtures on solid agar (diffusion disks); format: cell-based; settings: excess cardiolipin (2× molar equivalent)
Experimental: To assess the impact of various lipids on telomycin's antibacterial activity on solid agar, 10 μL of 10 mM telomycin was mixed with 10 μL of 20 mM cardiolipin (Sigma Aldrich; C0563; ≥98% pure), phosphatidylglycerol (Sigma Aldrich; 63371; ≥98% pure), phosphatidylcholine (Sigma Aldrich; P3556; ≥99% pure), or phosphatidylethanolamine (Sigma Aldrich; P7943; ≥97% pure). All compounds were dissolved in methanol. Mixtures were incubated for 10 min, then added to diffusion disks, allowed to dry, then placed on a CAMHB agar plate with B. subtilis as an indicator organism. The plate was incubated overnight at 28° C.
as §6

[9] = test system: Chinese Hamster ovary (CHO) cells; settings: previous studies; cited from earlier work
[10] = in vivo, cited from earlier work
[11] = test system: Sensitive and resistant strains; test: MICs of telomycin antibiotics (FIG. 46); format: cell-based
Experimental: as §1, §2

CC(C)CC1NC(=O)C(C(C)c2c[nH]c3ccccc23)NC(=O)/C(=C\c2c[nH]c3ccccc23)NC(=O)C2CCCN2C(=O)CNC(=O)C(C)NC(=O)C(C(C)O)NC(=O)C(NC(=O)C(CO)NC(=O)CC(N)C(=O)O)C(C)OC(=O)C2CCCN2C1=O (stereo not drawn) [telomycin F] (βAsp-STTAGP[X1][X2]LP; ester 2-C; configuration not given here)
activity against resistant strains [1]: comparable with the activity of telomycin A against sensitive strains

di-5-methyltryptophan telomycin
activity against resistant strains [1]: comparable with the activity of telomycin A against sensitive strains

LL-AO341β
activity relative to telomycin (Gram positive organisms): improved activity | cross-resistance with other antibacterial agents (Gram positive organisms; previous observations): does not demonstrate cross-resistance

telomycin A
telomycin activity after growth in high salinity (S. aureus [2]; S. aureus grown in CAMHB with 0, 0.5, 1, or 1.5 M NaCl): improved | MIC (S. aureus [2]; Wild type S. aureus): 8 µg/mL | increase in MIC ([1]; telomycin-resistant bacteria generated with limited passaging, versus sensitive parent): 16 fold | lysis of bacteria (S. aureus [3]; concentrations above the MIC): rapid lysis | lysis (CFUs before and after treatment) (S. aureus [3]; wild type S. aureus OD 0.2, 256 μg ml^−1 (32×MIC), 90 min): lyses S. aureus at high concentrations | lysis of bacteria (B. subtilis [4]): rapid lysis | lysis of telomycin-resistant bacteria [5]: refractory to lysis | cytotoxicity: not observed at concentrations up to (HEK293 cells): > 128 µg/mL | hemolysis (sheep red blood cell): not hemolytic; also recorded: does not cause hemolysis | hemolysis (sheep red blood cell; listed as Telomycin): not hemolytic; also recorded: does not Cause Hemolysis | turbidity / precipitation with cardiolipin [6]: rapidly formed an opaque precipitant in a dose-dependent manner | turbidity / precipitation with cardiolipin ([6]; listed as Telomycin): uniquely and rapidly acquire turbidity | effect of phosphatidylglycerol on antibacterial activity of telomycin (B. subtilis [7]; phosphatidylglycerol in 10× molar excess): some protective effect | effect of cardiolipin on antibacterial activity of telomycin (MIC) (B. subtilis [7]; telomycin 0.1 mM, lipids 1 to 0.05 mM): reduces telomycin's antibacterial activity in a dose-dependent manner | effect of cardiolipin on antibacterial activity of telomycin (B. subtilis [8]): completely abolish; also recorded: abolishes | toxicity: not observed at concentrations up to [9]: > 40 µg/mL | efficacy in animal studies [10]: demonstrated efficacy; also recorded: demonstrated value in vivo | toxicity in animals / mammals [10]: without apparent toxicity | toxicity in animals / mammals ([10]; listed as Telomycin): not known to possess significant toxicity

N-carboxyfluorescein telomycin [fluorescein-labelled telomycin conjugate]
antimicrobial activity relative to telomycin [11]: slight decrease
